# Assay results from US20240150356A1, “Pyrimidine amide compounds and use thereof” (ALPHALA CO., LTD., priority 2019, published 2024).
# Test system: Hep3B cells (hepatocellular carcinoma cell line)
# Assay: In vitro MTS cell viability assay (NCI-60 methodology), Hep3B
# Assay type: cell-based
# Conditions: Homo sapiens, 48 h, Table 1, MTS, 2 days drug incubation, 50% reduction vs time zero, read-out: Hep3B LC50
# Method: The cell viability measurement is based on the NCI-60 screening methodology (Nat. Rev. Cancer 6, 813-823, 2006). Briefly, cells are inoculated into 96-well plates at the optimal plating density. After 24 h, one of the two plates for Hep3B cell line is processed to determine a time zero cell viability (Tz) by MTS assay (Promega). Compounds are added over a 2-fold serial dilution to provide a total five drug concentrations plus DMSO control. Plates are incubated for a further 2 days, then measured cell viability by MTS assay [control growth (C) and test growth in the presence of drug at the five concentration levels (Ti)]. The LC50 is calculated from [(Ti−Tz)/Tz]×100=−50, which is the drug concentration resulting in a 50% reduction at the end of the drug treatment as compared to that at the beginning.
# The compounds prepared in Tables 1-10 were tested in three in vitro assays, and the results are shown in Tables 1-10 for Hep3B and Table 11 for SW480 and NCI-H460 shown below. Herein, Hep3B refers to hepatocellular carcinoma cell line, SW480 refers to colon adenocarcinoma cell line, and NCI-H460 refers to human lung cancer cell line.
# Shown in following Tables 1 to 10 are the structures and in vitro activities of exemplary compounds of formula (I).
row,Compound,LC50
1,"CCC(C)(C)c1ccc(-c2nc(NC(=O)c3ccc([N+](=O)[O-])s3)c3cnn(C)c3n2)cc1 [Compound 1-9, N-(1-methyl-6-(4-(tert-pentyl)phenyl)-1H-pyrazolo[3,4-d]pyrimidin-4-yl)-5-nitrothiophene-2-carboxamide]",1500 nM

# Same assay, conditions: Homo sapiens, 48 h, Table 4, MTS, 2 days drug incubation, 50% reduction vs time zero, read-out: Hep3B LC50
row,Compound,LC50
1,"Cc1csc2c(NC(=O)c3ccc([N+](=O)[O-])s3)nc(-c3ccc(OC(F)(F)F)cc3)nc12 [Compound 4-4, N-(7-methyl-2-(4-(trifluoromethoxy)phenyl)thieno[3,2-d]pyrimidin-4-yl)-5-nitrothiophene-2-carboxamide]",890 nM
2,"Cc1csc2c(NC(=O)c3ccc([N+](=O)[O-])s3)nc(-c3cc(F)c(F)c(F)c3)nc12 [Compound 4-9, N-(7-methyl-2-(3,4,5-trifluorophenyl)thieno[3,2-d]pyrimidin-4-yl)-5-nitrothiophene-2-carboxamide]",> 10000 nM

# Same assay, conditions: Homo sapiens, 48 h, Table 5, MTS, 2 days drug incubation, 50% reduction vs time zero, read-out: Hep3B LC50
row,Compound,LC50
1,"CCOCCOCCOc1nc(NC(=O)c2ccc([N+](=O)[O-])s2)c2cnn(-c3ccccc3)c2n1 [Compound 5-10, N-(6-(2-(2-ethoxyethoxy)ethoxy)-1-phenyl-1H-pyrazolo[3,4-d]pyrimidin-4-yl)-5-nitrothiophene-2-carboxamide]",> 5000 nM
2,"CCOCCOc1ccc(-c2nc(NC(=O)c3ccc([N+](=O)[O-])s3)c3cnn(-c4ccccc4)c3n2)cn1 [Compound 5-55, N-(6-(6-(2-ethoxyethoxy)pyridin-3-yl)-1-phenyl-1H-pyrazolo[3,4-d]pyrimidin-4-yl)-5-nitrothiophene-2-carboxamide]",490 nM
3,"O=C(Nc1nc(-c2cc(F)c(F)c(F)c2)nc2c1cnn2-c1ccccc1)c1ccc([N+](=O)[O-])s1 [Compound 5-53, 5-nitro-N-(1-phenyl-6-(3,4,5-trifluorophenyl)-1H-pyrazolo[3,4-d]pyrimidin-4-yl)thiophene-2-carboxamide]",> 1250 nM

# Same assay, conditions: Homo sapiens, 48 h, Table 6, MTS, 2 days drug incubation, 50% reduction vs time zero, read-out: Hep3B LC50
row,Compound,LC50
1,CCC(C)(C)c1ccc(-c2nc(NC(=O)c3ccc([N+](=O)[O-])s3)c3cnn(-c4ccc(OC(F)(F)F)cc4)c3n2)cc1 [Compound 6-87],> 2000 nM
2,"COc1ccc(-n2ncc3c(NC(=O)c4ccc([N+](=O)[O-])s4)nc(-c4ccc(F)c(F)c4)nc32)cc1 [Compound 6-23, N-(6-(3,4-difluorophenyl)-1-(4-methoxyphenyl)-1H-pyrazolo[3,4-d]pyrimidin-4-yl)-5-nitrothiophene-2-carboxamide]",170 nM
3,"CC(C)(C)c1ccc(-n2ncc3c(NC(=O)c4ccc([N+](=O)[O-])s4)nc(-c4ccccc4F)nc32)cc1 [Compound 6-79, N-(1-(4-(tert-butyl)phenyl)-6-(2-fluorophenyl)-1H-pyrazolo[3,4-d]pyrimidin-4-yl)-5-nitrothiophene-2-carboxamide]",690 nM
4,"COC[C@@H]1CCCN1c1nc(NC(=O)c2ccc([N+](=O)[O-])s2)c2cnn(-c3ccc(F)cc3)c2n1 [Compound 6-103, (S)—N-(1-(4-fluorophenyl)-6-(2-(methoxymethyl)pyrrolidin-1-yl)-1H-pyrazolo[3,4-d]pyrimidin-4-yl)-5-nitrothiophene-2-carboxamide]",780 nM
5,"CC(C)(C)c1ccc(-n2ncc3c(NC(=O)c4ccc([N+](=O)[O-])s4)nc(-n4ccnc4)nc32)cc1 [Compound 6-74, N-(1-(4-(tert-butyl)phenyl)-6-(1H-imidazol-1-yl)-1H-pyrazolo[3,4-d]pyrimidin-4-yl)-5-nitrothiophene-2-carboxamide]",330 nM
6,"O=C(Nc1nc(N2CCC[C@H]2CO)nc2c1cnn2-c1ccc(F)cc1)c1ccc([N+](=O)[O-])s1 [Compound 6-102, (S)—N-(1-(4-fluorophenyl)-6-(2-(hydroxymethyl)pyrrolidin-1-yl)-1H-pyrazolo[3,4-d]pyrimidin-4-yl)-5-nitrothiophene-2-carboxamide]",1300 nM
7,"Cc1ccc(-n2ncc3c(NC(=O)c4ccc([N+](=O)[O-])s4)nc(-c4ccc5c(c4)OCCO5)nc32)cc1 [Compound 6-10, N-(6-(2,3-dihydrobenzo[b][1,4]dioxin-6-yl)-1-(p-tolyl)-1H-pyrazolo[3,4-d]pyrimidin-4-yl)-5-nitrothiophene-2-carboxamide]",620 nM
8,CC1CC=C(c2nc(NC(=O)c3ccc([N+](=O)[O-])s3)c3cnn(-c4ccc(F)cc4)c3n2)CC1 (stereo not drawn) [Compound 6-142],740 nM
9,"O=C(Nc1nc(-c2ccc(OC(F)(F)F)cc2)nc2c1cnn2-c1ccc(F)cc1)c1ccc([N+](=O)[O-])s1 [Compound 6-123, N-(1-(4-fluorophenyl)-6-(4-(trifluoromethoxy)phenyl)-1H-pyrazolo[3,4d]pyrimidin-4-yl)-5-nitrothiophene-2-carboxamide]",340 nM
10,"O=C(Nc1nc(-c2ccc(Cl)cc2)nc2c1cnn2-c1cccc(Cl)c1)c1ccc([N+](=O)[O-])s1 [Compound 6-38, N-(1-(3-chlorophenyl)-6-(4-chlorophenyl)-1H-pyrazolo[3,4-d]pyrimidin-4-yl)-5-nitrothiophene-2-carboxamide]",380 nM
11,"O=C(Nc1nc(-c2ccc(C(F)(F)F)cc2F)nc2c1cnn2-c1cccc(Cl)c1)c1ccc([N+](=O)[O-])s1 [Compound 6-41, N-(1-(3-chlorophenyl)-6-(2-fluoro-4-(trifluoromethyl)phenyl)-1H-pyrazolo[3,4-d]pyrimidin-4-yl)-5-nitrothiophene-2-carboxamide]",320 nM
12,"CCOCCOCCOc1cc(Cl)ccc1-c1nc(NC(=O)c2ccc([N+](=O)[O-])s2)c2cnn(-c3ccc(F)cc3)c2n1 [Compound 6-140, N-(6-(4-chloro-2-(2-(2-ethoxyethoxy)ethoxy)phenyl)-1-(4-fluorophenyl)-1H-pyrazolo[3,4-d]pyrimidin-4-yl)-5-nitrothiophene-2-carboxamide]",4830 nM

# Same assay, conditions: Homo sapiens, 48 h, Table 7, MTS, 2 days drug incubation, 50% reduction vs time zero, read-out: Hep3B LC50
row,Compound,LC50
1,O=C(Nc1nc(-c2ccc(Cl)cc2)nc2c1cnn2-c1ccc(F)cc1F)c1ccc([N+](=O)[O-])s1 [Compound 7-14],580 nM
2,O=C(Nc1nc(-c2ccc(F)nc2)nc2c1cnn2-c1ccc(Cl)cc1Cl)c1ccc([N+](=O)[O-])s1 [Compound 7-10],> 1250 nM
3,O=C(Nc1nc(-c2ccc(F)cc2)nc2c1cnn2-c1ccc(Cl)cc1Cl)c1ccc([N+](=O)[O-])s1 [Compound 7-9],370 nM

# Same assay, conditions: Homo sapiens, 48 h, Table 8, MTS, 2 days drug incubation, 50% reduction vs time zero, read-out: Hep3B LC50
row,Compound,LC50
1,"C[C@@H]1C[C@@H](n2ncc3c(NC(=O)c4ccc([N+](=O)[O-])s4)nc(-c4ccc(F)cc4)nc32)CC(C)(C)C1 [Compound 8-13, N-(6-(4-fluorophenyl)-1-((1R,5S)-3,3,5-trimethylcyclohexyl)-1H-pyrazolo[3,4-d]pyrimidin-4-yl)-5-nitrothiophene-2-carboxamide]",900 nM

# Same assay, conditions: Homo sapiens, 48 h, Table 10, MTS, 2 days drug incubation, 50% reduction vs time zero, read-out: Hep3B LC50
row,Compound,LC50
1,"O=C(Nc1nc(N2CCC(F)(F)C2)nc2c1cnn2C1CCCCC1)c1ccc([N+](=O)[O-])s1 [Compound 10-1, N-(1-cyclohexyl-6-(3,3-difluoropyrrolidin-1-yl)-1H-pyrazolo[3,4-d]pyrimidin-4-yl)-5-nitrothiophene-2-carboxamide]",1250 nM
2,"N#Cc1ccc(-c2nc(NC(=O)c3ccc([N+](=O)[O-])s3)c3cnn(C4CCCCC4)c3n2)cc1 [Compound 10-20, N-(6-(4-cyanophenyl)-1-cyclohexyl-1H-pyrazolo[3,4-d]pyrimidin-4-yl)-5-nitrothiophene-2-carboxamide]",1200 nM
3,"COCCOc1ccc(-c2nc(NC(=O)c3ccc([N+](=O)[O-])s3)c3cnn(C4CCCCC4)c3n2)cn1 [Compound 10-51, N-(1-cyclohexyl-6-(6-(2-methoxyethoxy)pyridin-3-yl)-1H-pyrazolo[3,4-d]pyrimidin-4-yl)-5-nitrothiophene-2-carboxamide]",960 nM
4,CC1(C)CCC(n2ncc3c(NC(=O)c4ccc([N+](=O)[O-])s4)nc(-c4ccc(F)cc4)nc32)CC1 [Compound 10-61],550 nM
5,"CC1(C)CCC(n2ncc3c(NC(=O)c4ccc([N+](=O)[O-])s4)nc(-c4ccc(Cl)nc4)nc32)CC1 [Compound 10-64, N-(6-(6-chloropyridin-3-yl)-1-(4,4-dimethylcyclohexyl)-1H-pyrazolo[3,4-d]pyrimidin-4-yl)-5-nitrothiophene-2-carboxamide]",570 nM
6,"CC1(C)CCC(n2ncc3c(NC(=O)c4ccc([N+](=O)[O-])s4)nc(-c4ccc(F)nc4)nc32)CC1 [Compound 10-62, N-(1-(4,4-dimethylcyclohexyl)-6-(6-fluoropyridin-3-yl)-1H-pyrazolo[3,4-d]pyrimidin-4-yl)-5-nitrothiophene-2-carboxamide]",710 nM
7,"O=C(Nc1nc(-c2ccc3c(c2)OCO3)nc2c1cnn2C1CCCCC1)c1ccc([N+](=O)[O-])s1 [Compound 10-36, N-(6-(benzo[d][1,3]dioxol-5-yl)-1-cyclohexyl-1H-pyrazolo[3,4-d]pyrimidin-4-yl)-5-nitrothiophene-2-carboxamide]",2120 nM
8,"COc1ccc(-c2nc(NC(=O)c3ccc([N+](=O)[O-])s3)c3cnn(C4CCCCC4)c3n2)cc1OC [Compound 10-48, N-(1-cyclohexyl-6-(3,4-dimethoxyphenyl)-1H-pyrazolo[3,4-d]pyrimidin-4-yl)-5-nitrothiophene-2-carboxamide]",970 nM
